The target of one data set is T1, hERG ion channel (Homo sapiens, UniProt Q12809).
T1 construct: expressed in transfected cells; host or cells: Chinese Hamster Ovary cells (hERG-CHO)
Description: hERG Ion Channel Assay (Q-patch, hERG-CHO cells). Format: cell-based. The following applies: CHO cells stably transfected with hERG (hERG-CHO), pH 7.4, hERG tail current. The protocol:
The activity of the compounds against the hERG ion channel was tested. The assay was conducted using the automated path-clamp, Q-patch method using stably transfected Chinese Hamster Ovary cells (hERG-CHO). hERG-CHO cells were cultured in F-12 Kaighn's Nutrient Mixture medium (Invitrogen)+10% FBS at 37° C. for 1-3 days. Cells were kept at 30° C. for 24 to 48 hours prior to patch clamping in order to increase the hERG current amplitude. Subsequently, the cells were harvested by trypsinisation, and kept in Serum Free Medium (SFM) in the Q-patch cell preparation state for up to 6 hours at room temperature before being washed and re-suspended in extracellular solution and applied to the patch clamp sites for data recording.
Patch-clamp voltage protocol: After whole cell configuration was achieved, the cell was held at −80 mV. A 50 millisecond pulse to −40 mV was delivered to measure the leaking current, which was subtracted from the tail current on-line. Then the cell was depolarized to +20 mV for 2 seconds, followed by a one second pulse to −40 mV to reveal hERG tail current. This paradigm was delivered once every 5 seconds to monitor the current amplitude.
Extracellular solution: 137 mM NaCl, 4 mM KCl, 1.8 mM CaCl2, 1 mM MgCl2, 10 mM D(+)-glucose, 10 mM HePES buffer (pH adjusted to 7.4 with NaOH).
After the whole cell configuration was achieved, the extracellular solution (control) was applied first and the cell was stabilized for 2 minutes in extracellular solution. The test compound was then applied from low concentrations to high concentrations cumulatively. The cell was incubated with each test concentration for 5 minutes. During each incubation, the cell was repetitively stimulated using the voltage protocol described above, and the tail current amplitude was continuously monitored.
The degree of inhibition (%) was obtained by measuring the tail current amplitude, induced by a one second test pulse to −40 mV after a two second pulse to +20 mV, before and after incubation with the test compound. The difference in current was normalized to control and multiplied by 100 in order to obtain the percent inhibition.
Concentration (log) response curves were fitted to a logistic equation (three parameters assuming complete block of the current at very high test compound concentrations) to generate estimates of the 50% inhibitory concentration (IC50). The concentration-response relationship of each compound was constructed from the percentage reductions of current amplitude by sequential concentrations.
(The hERG channel carries a current that helps repolarise heart muscle cells.)

In another data set the target is T2, CYP2D6 (Homo sapiens, UniProt P10635).
T2 construct: purchased Cypex Ltd, Dundee, Scotland UK
T2 sequence (P10635 whole entry): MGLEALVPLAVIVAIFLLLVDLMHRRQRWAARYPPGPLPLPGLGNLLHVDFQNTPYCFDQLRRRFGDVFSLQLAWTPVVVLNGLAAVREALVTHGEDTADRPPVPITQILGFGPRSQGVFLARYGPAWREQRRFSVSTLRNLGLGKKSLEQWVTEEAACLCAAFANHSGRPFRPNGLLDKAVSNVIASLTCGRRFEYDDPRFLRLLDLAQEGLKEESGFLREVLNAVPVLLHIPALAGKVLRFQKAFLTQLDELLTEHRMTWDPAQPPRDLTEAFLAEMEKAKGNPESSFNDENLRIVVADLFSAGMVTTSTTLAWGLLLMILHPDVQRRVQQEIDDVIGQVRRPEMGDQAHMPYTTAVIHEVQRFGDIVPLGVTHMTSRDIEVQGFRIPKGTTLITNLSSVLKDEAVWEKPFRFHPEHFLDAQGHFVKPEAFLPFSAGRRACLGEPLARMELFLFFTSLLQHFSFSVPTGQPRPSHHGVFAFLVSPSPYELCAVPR
Put plainly: Human Cytochrome P450 Inhibition Assay (Bactosomes), CYP2D6. Format: in vitro ADME. The conditions noted are these: recombinant Bactosomes, probe substrate, 10 minutes at 37° C. As for the experimental part:
(§1) The ability of test compounds to inhibit five of the most relevant cytochrome P450 enzymes was measured by determination of the activity of cytochrome P450 enzymes in recombinant cytochrome preparations, called Bactosomes (Cypex Ltd, Dundee, Scotland UK DD2 1NH), in the presence of a specific probe substrate. Bactosomes are a highly efficient and cost-effective source of recombinant CYP450s which have a higher specific activity of enzyme compared to other sources, such as liver microsomes. […] The following CYP450 isoforms were assayed: CYP1A2, CYP2C9, CYP2C19, CYP2D6 and CYP3A4. The study of CYP450 inhibition potential in Bactosomes is accepted as a valuable model permitting rapid prediction of potential drug-drug interactions in vivo (see, e.g., Weaver et al., 2003).
(§2) Bactosomes were obtained from a commercial source (Cypex, Scotland, UK). Test compounds were incubated with Bactosomes at 6 concentrations. Samples were incubated for 10 minutes, after which the reaction was stopped and the samples analysed by LC-MS/MS Multiple Reaction Monitoring (MRM) for the presence/amount of substrate probe.
(§3) CYP450 enzymes (final protein 75 pmol/mL for CYP1A2; 12.5 pmol/mL for CYP2C19; and 25 pmol/mL for CYP2C9, 2D6 and 3A4), 0.1 M phosphate buffer pH 7.4, probe and test compound (final concentration 50, 15.8, 5, 1.58, 0.5 and 0.158 μM; diluted from 10 mM stock solution to give a final DMSO concentration of 1%) were pre-incubated at 37° C. for 5 minutes. The reaction was initiated by the addition of 20 μL of 10 mM NADPH in phosphate buffer. The final incubation volume was 200 μL. The following control inhibitors were used for each CYP450 inhibition assay: CYP1A2: α-naphthoflavone; CYP2C9: sulfaphenazole; CYP2C19: tranylcypromine; CYP2D6: quinidine; CYP3A4: ketoconazole.
(§4) Each compound was incubated for 10 minutes at 37° C. The reactions were stopped by the addition of methanol (final composition 1:1, aqueous: methanol). The incubation plates were shaken, chilled at […] for 2 hours, and centrifuged at 3500 rpm for 15 minutes at 4° C. to precipitate the protein.
(§5) IC50 values were determined by linear transformation within Microsoft Excel.

The target of another data set is T3, CYP2C9 (Homo sapiens, UniProt P11712).
T3 construct: purchased Cypex Ltd, Dundee, Scotland UK
T3 sequence (P11712 whole entry): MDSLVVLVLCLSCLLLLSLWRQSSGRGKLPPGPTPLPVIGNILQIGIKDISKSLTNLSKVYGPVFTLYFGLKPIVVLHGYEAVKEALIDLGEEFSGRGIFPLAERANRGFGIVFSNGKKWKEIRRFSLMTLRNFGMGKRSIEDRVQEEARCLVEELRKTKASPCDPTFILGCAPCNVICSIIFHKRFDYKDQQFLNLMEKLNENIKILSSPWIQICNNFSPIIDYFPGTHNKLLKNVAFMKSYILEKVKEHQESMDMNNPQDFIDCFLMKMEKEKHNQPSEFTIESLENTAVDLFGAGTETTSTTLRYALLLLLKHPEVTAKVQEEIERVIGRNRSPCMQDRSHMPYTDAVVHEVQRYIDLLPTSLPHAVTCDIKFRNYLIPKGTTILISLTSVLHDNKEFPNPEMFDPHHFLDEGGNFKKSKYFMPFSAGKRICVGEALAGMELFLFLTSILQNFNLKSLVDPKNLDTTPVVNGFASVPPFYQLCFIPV
Put plainly: Human Cytochrome P450 Inhibition Assay (Bactosomes), CYP2C9. In kind it is in vitro ADME. The conditions noted are these: recombinant Bactosomes, probe substrate, 10 minutes at 37° C. As for the experimental part: as §1, §2, §3, §4, §5

Data set [1] in a line: Rodent Pharmacokinetics Studies. In kind it is in vivo, rat. The following applies: for bioavailability / half-life: rat, plasma; for bioavailability: read-out: Bioavail, F (%). The protocol:
Absorption and metabolic stability were studied using an in vivo pharmacokinetics assay.
[…] […] For compound HMC-C-01-A the oral administration was formulated in 2% dimethylacetamide/20% hydroxypropyl-β-cyclodextrin in water. Animals were given free access to food throughout the study except for fasting overnight and until 2 hours post dose on the day of dosing.
Blood samples were taken from the retro-orbital plexus at the following time points and placed in microtubes containing 20% K2EDTA solution: […]
Blood samples were centrifuged to obtain plasma, which was transferred to a separate container and frozen at −20° C.
For analysis, samples were thawed at room temperature and prepared by protein precipitation with acetonitrile spiked with internal standard (500 ng/mL glipizide) in the ratio 1:4 with plasma. The samples were then vortexed for 5 minutes and centrifuged for 10 minutes at 20,600×g at 4° C. 100 μL of the supernatant was collected for analysis.
The pharmacokinetic parameters for the test compounds were calculated by Phoenix WinNonlin version 6.3 (Pharsight Corp, CA) using standard non-compartmental methods. Peak plasma concentrations (Cmax) and time of the peak plasma concentration (Tmax) were the observed values. The area under the plasma concentration-time curve (AUC) was determined by use of the linear trapezoidal rule up to the last measurable concentration (AUClast) and thereafter by extrapolation of the terminal elimination phase to infinity (AUCinf). The terminal elimination rate constant (kel) was determined by regression analysis of the linear terminal portion of the log plasma concentration-time curve. The elimination phase half-life (t1/2) was calculated as 0.693/kel.

Setting [2] is: male Han Wistar rats, 1 mg/kg intravenous, 5% DMSO/10% solutol in saline.
Setting [3] is: male Han Wistar rats, 5 mg/kg orally, 0.5% CMC/0.1% Tween-80.
[4] abbreviates: 5 mg/kg, male Han Wistar rats, oral in 0.5% CMC/0.1% Tween-80, i.v. in 5% DMSO/10% solutol in saline.

This note sets out measurements from patent US10005733B2, “N-(4-hydroxy-4-methyl-cyclohexyl)-4-phenyl-benzenesulfonamide and N-(4-hydroxy-4-methyl-cyclohexyl)-4-(2-pyridyl)-benzenesulfonamide compounds and their therapeutic use” (PIMCO 2664 LIMITED, priority 2014, dated 2018).

Read-outs that look alike come from different tables or passages of the source.

For orientation: inhibition means the change of the read-out against control, counted positive when it falls. Read a low inhibition as a response near the control. One may read the IC50 as the concentration needed to halve the response being measured. What is called half-life is how long it takes for the measured level to halve. A lower half-life goes with rapid decline.

T1 sequence (Q12809 whole entry): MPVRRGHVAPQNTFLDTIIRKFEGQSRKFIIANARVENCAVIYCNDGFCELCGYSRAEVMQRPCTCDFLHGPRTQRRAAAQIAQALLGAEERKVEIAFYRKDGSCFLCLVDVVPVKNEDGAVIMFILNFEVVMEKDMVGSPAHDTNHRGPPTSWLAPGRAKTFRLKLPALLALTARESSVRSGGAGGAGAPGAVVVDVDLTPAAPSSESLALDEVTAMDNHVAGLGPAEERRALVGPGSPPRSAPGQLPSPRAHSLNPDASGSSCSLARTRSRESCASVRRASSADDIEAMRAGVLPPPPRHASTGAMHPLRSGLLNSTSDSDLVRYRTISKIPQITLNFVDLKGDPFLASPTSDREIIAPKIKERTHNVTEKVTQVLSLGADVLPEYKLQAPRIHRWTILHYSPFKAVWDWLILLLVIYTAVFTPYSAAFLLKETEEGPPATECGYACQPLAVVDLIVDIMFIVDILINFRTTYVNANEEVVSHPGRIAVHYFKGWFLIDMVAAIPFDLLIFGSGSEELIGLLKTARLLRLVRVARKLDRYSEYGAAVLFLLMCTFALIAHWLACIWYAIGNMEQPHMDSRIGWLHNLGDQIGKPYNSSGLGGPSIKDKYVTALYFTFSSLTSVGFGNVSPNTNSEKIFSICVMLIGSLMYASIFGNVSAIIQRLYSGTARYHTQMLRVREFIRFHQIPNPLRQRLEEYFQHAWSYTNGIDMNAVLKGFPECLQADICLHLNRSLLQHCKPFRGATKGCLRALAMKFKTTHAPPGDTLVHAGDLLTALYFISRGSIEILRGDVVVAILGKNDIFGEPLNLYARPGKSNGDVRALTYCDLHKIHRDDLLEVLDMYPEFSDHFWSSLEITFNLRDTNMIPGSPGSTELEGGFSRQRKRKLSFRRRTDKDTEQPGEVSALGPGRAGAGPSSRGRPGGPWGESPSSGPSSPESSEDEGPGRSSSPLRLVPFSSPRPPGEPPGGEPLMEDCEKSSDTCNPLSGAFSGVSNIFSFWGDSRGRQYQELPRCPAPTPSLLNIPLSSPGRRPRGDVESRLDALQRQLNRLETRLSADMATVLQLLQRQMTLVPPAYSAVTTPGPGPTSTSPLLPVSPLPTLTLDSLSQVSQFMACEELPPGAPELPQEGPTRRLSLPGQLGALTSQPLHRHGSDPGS

On hERG ion channel, `C[C@]1(O)CC[C@H](NS(=O)(=O)c2ccc(-c3ccc(F)cc3F)cc2)CC1` [ABD900] returned an inhibition at 5 min, 10 µM of 15.1%.
`C[C@]1(O)CC[C@H](NS(=O)(=O)c2ccc(-c3ccc(Cl)cc3C#N)c(F)c2)CC1` [HMC-C-08-A, 4′-Chloro-2′-cyano-2-fluoro-N-((1r,4r)-4-hydroxy-4-methylcyclohexyl)-[1,1′-biphenyl]-4-sulfonamide]: the values for the IC50 at CYP2D6 and on CYP2C9 were 19 µM and 6.7 µM, respectively. The molecule also displayed an inhibition at 5 min, 10 µM against hERG ion channel of 29%.
`C[C@]1(O)CC[C@H](NS(=O)(=O)c2ccc(-c3ccc(C#N)cc3)c(F)c2)CC1` [HMC-C-07-A, 4′-Cyano-2-fluoro-N-((1r,4r)-4-hydroxy-4-methylcyclohexyl)-[1,1′-biphenyl]-4-sulfonamide]: the IC50 on CYP2D6 and at CYP2C9 was more than 50 µM each time. This molecule also registered an inhibition at 5 min, 10 µM against hERG ion channel of 47%.
In the case of `O=S(=O)(N[C@H]1CC[C@H](O)CC1)c1ccc(-c2ccc(F)cc2F)cc1` [ABD599, reference compound], the results for the IC50 at CYP2D6 and on CYP2C9 were 20.7 µM and 9.5 µM, respectively. Further, the inhibition at 5 min, 10 µM against hERG ion channel came to 74.9%.
In the case of `C[C@]1(O)CC[C@@H](NS(=O)(=O)c2ccc(-c3ccc(F)cc3F)cc2)CC1` [ABD899, reference compound], the “i.v. AUC” value in data set [1] (setting [2]) came out at 2133 ng/mL/min. For the same molecule, the “p.o. AUC (ng/mL/min)” value in data set [1] (setting [3]) is recorded as 10740 ^(4) ng/mL/min. In addition, in data set [1] (setting [4]), the bioavailability was 50%. In addition, the IC50 on CYP2D6 was determined as 45.3 µM; at CYP2C9, 3.9 µM. The molecule further gave an inhibition at 5 min, 10 µM at hERG ion channel of 85.2%.
For `C[C@]1(O)CC[C@@H](NS(=O)(=O)c2ccc(-c3ccc(C#N)cc3)c(F)c2)CC1` [HMC-C-07-B, 4′-Cyano-2-fluoro-N-((1s,4s)-4-hydroxy-4-methylcyclohexyl)-[1,1′-biphenyl]-4-sulfonamide], the bioavailability in data set [1] (male, Han Wistar, iv, 5 mg/kg, rats, footnote (3): i.v. samples at 0.03, 0.1, 0.167, 0.25, 0.5, 1, 2, 4, 6, 8, 24 hours) amounted to 86%; in data set [1] (male, Han Wistar, rats, footnotes (1)(2): 5% DMSO/10% solutol in saline for both routes, sampling incl. 23 and 24 hours, oral 10 mg/kg), 100%. The half-life was 9.7 h in data set [1] (male, Han Wistar, rats, footnotes (1)(2): 5% DMSO/10% solutol in saline for both routes) and 9 h in data set [1] (male, Han Wistar, rats, study of footnote (3)). The “i.v. AUC” value turned out to be 11627 ng/mL/min in data set [1] (rats, 1 mg/kg i.v., footnote (3): i.v. samples at 0.03, 0.1, 0.167, 0.25, 0.5, 1, 2, 4, 6, 8, 24 hours); 24072 ng/mL/min in data set [1] (rats, footnotes (1)(2): 1 mg/kg i.v. in 5% DMSO/10% solutol in saline, sampling incl. 23 and 24 hours). Moreover, the “p.o. AUC” value in data set [1] (rats, 5 mg/kg orally, study of footnote (3)) was found to be 39463 ng/mL/min. In addition, the “p.o. AUC (ng/mL/min)” value in data set [1] (rats, footnotes (1)(2)(5): dosed at 10 mg/kg orally in 5% DMSO/10% solutol in saline) is given as 146299 ^(5) ng/mL/min. In addition, the IC50 on CYP2D6 and at CYP2C9 was more than 50 µM throughout. In addition, on hERG ion channel, the inhibition at 5 min, 10 µM was determined as 40%.
As for `C[C@]1(O)CC[C@@H](NS(=O)(=O)c2ccc(-c3cc(F)c(F)cc3F)cc2)CC1` [HMC-C-10-B, 2′,4′,5′-Trifluoro-N-((1s,4s)-4-hydroxy-4-methylcyclohexyl)-[1,1′-biphenyl]-4-sulfonamide], the IC50 was more than 16 µM at CYP2D6 and 2.4 µM on CYP2C9.
With `C[C@]1(O)CC[C@H](NS(=O)(=O)c2ccc(-c3ncc(Cl)cc3C#N)cc2)CC1` [HMC-N-05-A, 4-(5-Chloro-3-cyanopyridin-2-yl)-N-((1r,4r)-4-hydroxy-4-methylcyclohexyl)benzenesulfonamide], the bioavailability in data set [1] (male, Han Wistar, 5 mg/kg, rats, footnote (1): 5% DMSO/10% solutol in saline for both oral and intravenous routes) amounted to 88%. In addition, the half-life in data set [1] (male, Han Wistar, rats, footnote (1): 5% DMSO/10% solutol in saline for both routes) is 0.8 h. Besides, in data set [1] (rats, 1 mg/kg i.v., footnote (1): 5% DMSO/10% solutol in saline), the “i.v. AUC” value amounted to 891 ng/mL/min. For the same molecule, the “p.o. AUC” value in data set [1] (rats, 5 mg/kg orally, footnote (1): 5% DMSO/10% solutol in saline) came out at 3937 ng/mL/min. The IC50 at CYP2D6 was more than 50 µM; at CYP2C9, 27 µM. At hERG ion channel, this molecule returned an inhibition at 5 min, 10 µM of 35%.
In the case of `C[C@]1(O)CC[C@H](NS(=O)(=O)c2ccc(-c3ccc(C#N)cc3Cl)cc2)CC1` [HMC-C-09-A, 2′-Chloro-4′-cyano-N-((1r,4r)-4-hydroxy-4-methylcyclohexyl)-[1,1′-biphenyl]-4-sulfonamide], the IC50 at CYP2D6 is more than 50 µM; at CYP2C9, 34 µM. In addition, the inhibition at 5 min, 10 µM on hERG ion channel is 57%.
Turning to `Cc1cc(S(=O)(=O)N[C@H]2CC[C@H](O)CC2)ccc1-c1ccc(F)cc1F` [ABD735, reference compound], in data set [1] (setting [2]), the “i.v. AUC” value is recorded as 1081 ng/mL/min. The “p.o. AUC (ng/mL/min)” value in data set [1] (setting [3]) is reported as 8965 ^(4) ng/mL/min. The bioavailability in data set [1] (setting [4]) was 83%. For the same molecule, the IC50 was more than 25 µM on CYP2D6 and 25 µM on CYP2C9.
As for `C[C@]1(O)CC[C@H](NS(=O)(=O)c2ccc(-c3ccc(Cl)cc3C#N)c(Cl)c2)CC1` [HMC-C-11-A, 2,4′-Dichloro-2′-cyano-N-((1r,4r)-4-hydroxy-4-methylcyclohexyl)-[1,1′-biphenyl]-4-sulfonamide], the values for the IC50 at CYP2D6 and at CYP2C9 were 9.3 µM and 2.7 µM, respectively.
